# pIC50: −log10 of the molar value.
# Biological target: recombinant full length HPK-1 enzyme (Homo sapiens (Human), UniProt Q92918)
# Assay: HPK-1 biochemical enzyme assay (ADP-Glo kinase inhibition)
# Conditions: recombinant full length HPK-1 6.8 nM, 10 μM ATP, 12.5 μM MBP, 30 mins at 25° C.
# Procedure, shortened: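 Recombinant full-length human HPK-1 (6.8 nM) incubated 30 min at 25° C. with 10 μM ATP and 12.5 μM swine MBP in 40 mM Tris pH 7.4, 20 mM MgCl2, 50 μM DTT, 0.1 mg/mL BSA. ADP measured by ADP-Glo; IC50 from 10 concentrations, normalized to no-enzyme and vehicle controls.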
# Chain of recombinant full length HPK-1 enzyme (Q92918 whole entry, species assumed): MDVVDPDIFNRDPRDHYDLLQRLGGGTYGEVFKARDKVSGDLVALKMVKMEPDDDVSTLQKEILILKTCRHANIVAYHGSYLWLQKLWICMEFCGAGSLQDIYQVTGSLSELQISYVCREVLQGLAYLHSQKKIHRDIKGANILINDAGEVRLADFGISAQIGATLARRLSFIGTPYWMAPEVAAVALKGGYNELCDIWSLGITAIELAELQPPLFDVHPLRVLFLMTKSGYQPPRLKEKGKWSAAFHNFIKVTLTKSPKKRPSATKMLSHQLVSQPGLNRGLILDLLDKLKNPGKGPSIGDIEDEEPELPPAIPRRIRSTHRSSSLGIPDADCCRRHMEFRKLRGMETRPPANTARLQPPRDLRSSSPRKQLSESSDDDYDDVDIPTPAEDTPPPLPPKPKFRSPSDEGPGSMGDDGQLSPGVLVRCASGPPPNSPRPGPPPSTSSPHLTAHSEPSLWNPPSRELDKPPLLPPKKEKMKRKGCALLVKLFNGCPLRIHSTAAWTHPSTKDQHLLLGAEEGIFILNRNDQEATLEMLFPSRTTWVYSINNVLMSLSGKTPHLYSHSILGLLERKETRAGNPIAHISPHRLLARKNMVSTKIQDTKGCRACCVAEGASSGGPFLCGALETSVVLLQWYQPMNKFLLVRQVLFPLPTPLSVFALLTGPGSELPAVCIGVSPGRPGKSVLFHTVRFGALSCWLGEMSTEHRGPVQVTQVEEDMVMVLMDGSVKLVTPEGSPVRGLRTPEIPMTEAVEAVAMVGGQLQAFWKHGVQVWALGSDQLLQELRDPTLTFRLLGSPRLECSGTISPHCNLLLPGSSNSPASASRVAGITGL
row,SMILES,pIC50
1,"Cc1c(Nc2cc[nH]c(=O)c2C(=O)Nc2ccc(C(N)=O)cc2)cnc2c1NCCO2 [Example 242, N-(4-carbamoylphenyl)-4-((8-methyl-2,3-dihydro-1H-pyrido[2,3-b][1,4]oxazin-7-yl)amino)-2-oxo-1,2-dihydropyridine-3-carboxamide]",7.00 to 8.00
2,"CC(=O)Nc1ccc(NC(=O)c2c(Nc3cnc4c(c3C)NCCO4)cc[nH]c2=O)cn1 [Example 243, N-(6-acetamidopyridin-3-yl)-4-((8-methyl-2,3-dihydro-1H-pyrido[2,3-b][1,4]oxazin-7-yl)amino)-2-oxo-1,2-dihydropyridine-3-carboxamide]",6.00 to 7.00
3,"Cc1c(Nc2cc[nH]c(=O)c2C(=O)Nc2ccc3c(c2)OCO3)cnc2c1NCCO2 [Example 244, N-(benzo[d][1,3]dioxol-5-yl)-4-((8-methyl-2,3-dihydro-1H-pyrido[2,3-b][1,4]oxazin-7-yl)amino)-2-oxo-1,2-dihydropyridine-3-carboxamide]",7.00 to 8.00
4,"Cc1c(Nc2cc[nH]c(=O)c2C(=O)Nc2cccc(S(=O)(=O)CCO)c2)cnc2c1NCCO2 [Example 245, N-(3-((2-hydroxyethyl)sulfonyl)phenyl)-4-((8-methyl-2,3-dihydro-1H-pyrido[2,3-b][1,4]oxazin-7-yl)amino)-2-oxo-1,2-dihydropyridine-3-carboxamide]",6.00 to 7.00
5,"Cc1c(Nc2cc[nH]c(=O)c2C(=O)Nc2ccc3c(c2)NCCC3)cnc2c1NCCO2 [Example 246, 4-((8-methyl-2,3-dihydro-1H-pyrido[2,3-b][1,4]oxazin-7-yl)amino)-2-oxo-N-(1,2,3,4-tetrahydroquinolin-7-yl)-1,2-dihydropyridine-3-carboxamide]",7.00 to 8.00
6,"Cc1c(Nc2cc[nH]c(=O)c2C(=O)Nc2ccc(N3CCC(C(N)=O)CC3)cc2)cnc2c1NCCO2 [Example 247, N-(4-(4-carbamoylpiperidin-1-yl)phenyl)-4-((8-methyl-2,3-dihydro-1H-pyrido[2,3-b][1,4]oxazin-7-yl)amino)-2-oxo-1,2-dihydropyridine-3-carboxamide]",≥ 8.00
7,"Cc1c(Nc2cc[nH]c(=O)c2C(=O)Nc2ccc3ncsc3c2)cnc2c1NCCO2 [Example 248, N-(benzo[d]thiazol-6-yl)-4-((8-methyl-2,3-dihydro-1H-pyrido[2,3-b][1,4]oxazin-7-yl)amino)-2-oxo-1,2-dihydropyridine-3-carboxamide]",7.00 to 8.00
8,"Cc1nc2ccc(NC(=O)c3c(Nc4cnc5c(c4C)NCCO5)cc[nH]c3=O)cc2s1 [Example 249, 4-((8-methyl-2,3-dihydro-1H-pyrido[2,3-b][1,4]oxazin-7-yl)amino)-N-(2-methylbenzo[d]thiazol-6-yl)-2-oxo-1,2-dihydropyridine-3-carboxamide]",7.00 to 8.00
9,"Cc1c(Nc2cc[nH]c(=O)c2C(=O)Nc2ccc3c(c2)CCC(=O)N3C)cnc2c1NCCO2 [Example 250, 4-((8-methyl-2,3-dihydro-1H-pyrido[2,3-b][1,4]oxazin-7-yl)amino)-N-(1-methyl-2-oxo-1,2,3,4-tetrahydroquinolin-6-yl)-2-oxo-1,2-dihydropyridine-3-carboxamide]",7.00 to 8.00
10,"CCC(=O)N1CCN(c2ccc(NC(=O)c3c(Nc4cnc5c(c4C)NCCO5)cc[nH]c3=O)cc2)CC1 [Example 251, 4-((8-methyl-2,3-dihydro-1H-pyrido[2,3-b][1,4]oxazin-7-yl)amino)-2-oxo-N-(4-(4-propionylpiperazin-1-yl)phenyl)-1,2-dihydropyridine-3-carboxamide]",≥ 8.00
11,"Cc1c(Nc2cc[nH]c(=O)c2C(=O)Nc2ccc3c(c2)CCC(=O)N3)cnc2c1NCCO2 [Example 252, 4-((8-methyl-2,3-dihydro-1H-pyrido[2,3-b][1,4]oxazin-7-yl)amino)-2-oxo-N-(2-oxo-1,2,3,4-tetrahydroquinolin-6-yl)-1,2-dihydropyridine-3-carboxamide]",7.00 to 8.00
12,"COc1ccc(Oc2ccc(NC(=O)c3c(Nc4cnc5c(c4C)NCCO5)cc[nH]c3=O)cc2)cc1 [Example 253, N-(4-(4-methoxyphenoxy)phenyl)-4-((8-methyl-2,3-dihydro-1H-pyrido[2,3-b][1,4]oxazin-7-yl)amino)-2-oxo-1,2-dihydropyridine-3-carboxamide]",6.00 to 7.00
13,"Cc1c(Nc2cc[nH]c(=O)c2C(=O)Nc2ccc3c(c2)CCCN3)cnc2c1NCCO2 [Example 254, 4-((8-methyl-2,3-dihydro-1H-pyrido[2,3-b][1,4]oxazin-7-yl)amino)-2-oxo-N-(1,2,3,4-tetrahydroquinolin-6-yl)-1,2-dihydropyridine-3-carboxamide]",7.00 to 8.00
14,"Cc1c(Nc2cc[nH]c(=O)c2C(=O)Nc2ccc(-n3ccnc3)cc2)cnc2c1NCCO2 [Example 255, N-(4-(1H-imidazol-1-yl)phenyl)-4-((8-methyl-2,3-dihydro-1H-pyrido[2,3-b][1,4]oxazin-7-yl)amino)-2-oxo-1,2-dihydropyridine-3-carboxamide]",7.00 to 8.00
15,"Cc1c(Nc2cc[nH]c(=O)c2C(=O)Nc2ccc(N3CCN(C4COC4)CC3)cc2)cnc2c1NCCO2 [Example 256, 4-((8-methyl-2,3-dihydro-1H-pyrido[2,3-b][1,4]oxazin-7-yl)amino)-N-(4-(4-(oxetan-3-yl)piperazin-1-yl)phenyl)-2-oxo-1,2-dihydropyridine-3-carboxamide]",≥ 8.00
16,"Cc1c(Nc2cc[nH]c(=O)c2C(=O)Nc2ccc3nc[nH]c3c2)cnc2c1NCCO2 [Example 257, N-(1H-benzo[d]imidazol-6-yl)-4-((8-methyl-2,3-dihydro-1H-pyrido[2,3-b][1,4]oxazin-7-yl)amino)-2-oxo-1,2-dihydropyridine-3-carboxamide]",7.00 to 8.00
17,"Cc1c(Nc2cc[nH]c(=O)c2C(=O)Nc2ccc3c(c2)NC(=O)CC3)cnc2c1NCCO2 [Example 258, 4-((8-methyl-2,3-dihydro-1H-pyrido[2,3-b][1,4]oxazin-7-yl)amino)-2-oxo-N-(2-oxo-1,2,3,4-tetrahydroquinolin-7-yl)-1,2-dihydropyridine-3-carboxamide]",7.00 to 8.00
18,"Cc1c(Nc2cc[nH]c(=O)c2C(=O)Nc2ccc(N3CCN(C4CCCC4)CC3)c(F)c2)cnc2c1NCCO2 [Example 259, N-(4-(4-cyclopentylpiperazin-1-yl)-3-fluorophenyl)-4-((8-methyl-2,3-dihydro-1H-pyrido[2,3-b][1,4]oxazin-7-yl)amino)-2-oxo-1,2-dihydropyridine-3-carboxamide]",≥ 8.00
19,"Cc1c(Nc2cc[nH]c(=O)c2C(=O)Nc2ccc3c(c2)C(=O)NCC3)cnc2c1NCCO2 [Example 260, 4-((8-methyl-2,3-dihydro-1H-pyrido[2,3-b][1,4]oxazin-7-yl)amino)-2-oxo-N-(1-oxo-1,2,3,4-tetrahydroisoquinolin-7-yl)-1,2-dihydropyridine-3-carboxamide]",6.00 to 7.00
20,"Cc1c(Nc2cc[nH]c(=O)c2C(=O)Nc2ccc(N3CCN(C)CC3)c(Cl)c2)cnc2c1NCCO2 [Example 261, N-(3-chloro-4-(4-methylpiperazin-1-yl)phenyl)-4-((8-methyl-2,3-dihydro-1H-pyrido[2,3-b][1,4]oxazin-7-yl)amino)-2-oxo-1,2-dihydropyridine-3-carboxamide]",≥ 8.00
21,"Cc1c(Nc2cc[nH]c(=O)c2C(=O)Nc2ccc(N3CCN(S(C)(=O)=O)CC3)cc2)cnc2c1NCCO2 [Example 262, 4-((8-methyl-2,3-dihydro-1H-pyrido[2,3-b][1,4]oxazin-7-yl)amino)-N-(4-(4-(methylsulfonyl)piperazin-1-yl)phenyl)-2-oxo-1,2-dihydropyridine-3-carboxamide]",7.00 to 8.00
22,"Cc1c(Nc2cc[nH]c(=O)c2C(=O)Nc2ccc(N3CCN(C)CC3)c(N)c2)cnc2c1NCCO2 [Example 263, N-(3-Amino-4-(4-methylpiperazin-1-yl)phenyl)-4-((8-methyl-2,3-dihydro-1H-pyrido[2,3-b][1,4]oxazin-7-yl)amino)-2-oxo-1,2-dihydropyridine-3-carboxamide]",≥ 8.00
23,"CCn1nccc1-c1ccc(NC(=O)c2c(Nc3cnc4c(c3C)NCCO4)cc[nH]c2=O)cc1 [Example 264, N-(4-(1-ethyl-1H-pyrazol-5-yl)phenyl)-4-((8-methyl-2,3-dihydro-1H-pyrido[2,3-b][1,4]oxazin-7-yl)amino)-2-oxo-1,2-dihydropyridine-3-carboxamide]",7.00 to 8.00
24,"CCn1nc(C(F)(F)F)cc1-c1ccc(NC(=O)c2c(Nc3cnc4c(c3C)NCCO4)cc[nH]c2=O)cc1 [Example 265, N-(4-(1-ethyl-3-(trifluoromethyl)-1H-pyrazol-5-yl)phenyl)-4-((8-methyl-2,3-dihydro-1H-pyrido[2,3-b][1,4]oxazin-7-yl)amino)-2-oxo-1,2-dihydropyridine-3-carboxamide]",7.00 to 8.00
25,"Cc1c(Nc2cc[nH]c(=O)c2C(=O)Nc2ccc(N3CCN(C)C[C@@H]3C)cc2)cnc2c1NCCO2 [Example 266, (S)-N-(4-(2,4-dimethylpiperazin-1-yl)phenyl)-4-((8-methyl-2,3-dihydro-1H-pyrido[2,3-b][1,4]oxazin-7-yl)amino)-2-oxo-1,2-dihydropyridine-3-carboxamide]",≥ 8.00
26,"Cc1c(Nc2cc[nH]c(=O)c2C(=O)Nc2ccc(N3CCN(C)CC3=O)cc2)cnc2c1NCCO2 [Example 267, 4-((8-methyl-2,3-dihydro-1H-pyrido[2,3-b][1,4]oxazin-7-yl)amino)-N-(4-(4-methyl-2-oxopiperazin-1-yl)phenyl)-2-oxo-1,2-dihydropyridine-3-carboxamide]",7.00 to 8.00
27,"Cc1c(Nc2cc[nH]c(=O)c2C(=O)Nc2ccc(N3CCNC(=O)C3)cc2)cnc2c1NCCO2 [Example 268, 4-((8-methyl-2,3-dihydro-1H-pyrido[2,3-b][1,4]oxazin-7-yl)amino)-2-oxo-N-(4-(3-oxopiperazin-1-yl)phenyl)-1,2-dihydropyridine-3-carboxamide]",7.00 to 8.00
28,"Cc1c(Nc2cc[nH]c(=O)c2C(=O)Nc2ccc3c(c2)OCC(=O)N3)cnc2c1NCCO2 [Example 269, 4-((8-methyl-2,3-dihydro-1H-pyrido[2,3-b][1,4]oxazin-7-yl)amino)-2-oxo-N-(3-oxo-3,4-dihydro-2H-benzo[b][1,4]oxazin-7-yl)-1,2-dihydropyridine-3-carboxamide]",7.00 to 8.00

# — patent publication US20250282794A1 (CURADEV PHARMA LTD, priority 2022, published 2025)
